DBAASP
Values after ≈ are worked out from the molar mass of the structure shown. Values belong to the molecule of their own block, whether it stands above or below them.

Tests used:
Test in all cases: ≥ marks a high value that may be exact or a test limit, other limits are often not marked, values filed in µg/mL are converted to µM
[1] = test system: Escherichia coli PCM 2057
[2] = test system: Escherichia coli ATCC 25922
[3] = test system: Enterobacter cloacae NHTCC 53001
[4] = test system: Pseudomonas aeruginosa ATCC 27853
[5] = test system: Candida albicans ATCC 90028
[6] = test system: Klebsiella pneumoniae KK3 9904
[7] = test system: Staphylococcus aureus NCTC 8325
[8] = test system: Escherichia coli IFO 3301
[9] = test system: Bacillus subtilis IFO 3336
[10] = test system: Pseudomonas aeruginosa MR3007
[11] = test system: Staphylococcus aureus ATCC 33591
[12] = test system: Staphylococcus aureus 930918-3
[13] = test system: Salmonella typhimurium LME, Caen
[14] = test system: Enterococcus faecalis CIP 76.117
[15] = test system: Aeromonas salmonicida CIP 103209T
Vibrio splendidus LGP-32 = test system: Vibrio splendidus LGP-32
[16] = test system: Vibrio vulnificus CIP 109783
[17] = test system: Staphylococcus aureus CIP 53.156
[18] = test system: Vibrio aestuarianus IFREMER
[19] = test system: Vibrio alginolyticus IFREMER
[20] = test system: Bacillus megaterium CIP 51.17
Vibrio splendidus SATMAR = test system: Vibrio splendidus SATMAR
[21] = test system: Vibrio splendidus IFREMER
[22] = test system: Vibrio aestuarianus CIP 109791T
[23] = test system: Pseudomonas aeruginosa CIP A22
[24] = test system: Listeria monocytogenes LME, Caen
[25] = test system: Klebsiella pneumoniae CIP 52.145
[26] = test system: Escherichia coli CIP 54.8
[27] = test system: Shewanella putrefaciens IAM 1509
[28] = test system: Staphylococcus aureus IAM 1011
[29] = test system: Photobacterium damselae subsp. piscicida Sp 9587
[30] = test system: Vibrio parahaemolyticus Vp+1
[31] = test system: Vibrio anguillarum NCIMB 829
[32] = test system: Escherichia coli JCM 1649
Salmonella typhimurium = test system: Salmonella typhimurium
[33] = test system: Bacillus subtilis IAM 1026
[34] = test system: Aeromonas salmonicida NCIMB 1102

- MIC [1]: ≥ 520 µM
SMILES: CC[C@H](C)[C@H](NC(=O)[C@H](CC(N)=O)NC(=O)[C@H](C)NC(=O)[C@H](C)N)C(=O)N1CCC[C@H]1C(=O)N[C@@H](Cc1ccccc1)C(=O)N[C@@H](CCCCN)C(=O)N[C@H](C(=O)N[C@@H](Cc1cnc[nH]1)C(=O)N[C@@H](Cc1ccccc1)C(=O)N[C@@H](CCCN=C(N)N)C(=O)N[C@H]1CSSC[C@@H](C(=O)O)NC(=O)[C@H](Cc2ccccc2)NC(=O)[C@H](C)NC(=O)[C@H](C)NC(=O)[C@H](CCCCN)NC1=O)C(C)C [AANIPFKVHFRCKAAFC]

- MIC [2]: 3 µM (≈ 11.8 µg/mL)
- MIC [3]: 6 µM (≈ 23.5 µg/mL)
- MIC [4]: 3 µM (≈ 11.8 µg/mL)
- MIC [5]: ≥ 100 µM
- MIC [6]: 6 µM (≈ 23.5 µg/mL)
- MIC [7]: 25 µM (≈ 98 µg/mL)
SMILES: CC[C@H](C)[C@H](NC(=O)[C@H](Cc1cnc[nH]1)NC(=O)[C@H](CCCCN)NC(=O)CNC(=O)[C@H](C)NC(=O)[C@@H](NC(=O)[C@H](CCCCN)NC(=O)[C@H](CC(C)C)NC(=O)[C@@H](NC(=O)CNC(=O)[C@H](CCCN=C(N)N)NC(=O)[C@H](Cc1ccccc1)NC(=O)[C@H](CC(C)C)NC(=O)[C@H](CO)NC(=O)[C@H](CCSC)NC(=O)[C@H](CC(C)C)NC(=O)CN)C(C)C)[C@@H](C)O)C(=O)N[C@@H](Cc1ccccc1)C(=O)N[C@@H](CCCCN)C(=O)N[C@@H](CC(N)=O)C(=O)N[C@H](C(=O)NCC(=O)NCC(=O)N[C@@H](CO)C(=O)N[C@@H](CC(C)C)C(=O)N[C@@H](CC(C)C)C(=O)N[C@@H](CC(=O)O)C(=O)N[C@@H](CCC(N)=O)C(=O)N[C@@H](C)C(=O)N[C@@H](CCCCN)C(=O)N[C@H]1CSSC[C@@H](C(=O)O)NC(=O)[C@H](CCC(=O)O)NC(=O)CNC(=O)[C@H]([C@@H](C)O)NC(=O)[C@H]([C@@H](C)CC)NC(=O)[C@H](CCCCN)NC1=O)C(C)C [GLMSLFRGVLKTAGKHIFKNVGGSLLDQAKCKITGEC]

- MIC [8]: 7.44 µM (≈ 10 µg/mL)
- MIC [9]: 7.44 µM (≈ 10 µg/mL)
SMILES: NCCCC[C@H](NC(=O)[C@H](Cc1cnc[nH]1)NC(=O)[C@H](CCCCN)NC(=O)[C@H](Cc1cnc[nH]1)NC(=O)[C@H](CCCCN)NC(=O)[C@H](Cc1cnc[nH]1)NC(=O)[C@H](CCCCN)NC(=O)[C@H](Cc1cnc[nH]1)NC(=O)[C@@H](N)CCCCN)C(=O)N[C@@H](Cc1cnc[nH]1)C(=O)O [KHKHKHKHKH]

- MIC [10]: ≥ 160 µM
- MIC [11]: ≥ 160 µM
- MIC [12]: ≥ 160 µM
SMILES: CC[C@H](C)[C@H](NC(=O)[C@H](CCCCN)NC(=O)[C@H](CCC(N)=O)NC(=O)CNC(=O)[C@@H](NC(=O)[C@H](CCCCN)NC(=O)[C@H](CCCCN)NC(=O)[C@H](CC(C)C)NC(=O)[C@H](CCCCN)NC(=O)[C@H](CCC(=O)O)NC(=O)[C@H](CCCCN)NC(=O)[C@@H](NC(=O)[C@@H](N)CCCCN)[C@@H](C)CC)[C@@H](C)CC)C(=O)O [KIKEKLKKIGQKI]

- MIC [13]: ≥ 33.9 µM
- MIC [14]: ≥ 67.7 µM
- MIC [15]: 14.1 µM (≈ 23.6 µg/mL)
- MIC (Vibrio splendidus LGP-32): 24.5 µM (≈ 40.9 µg/mL)
- MIC [16]: ≥ 50 µM
- MIC [17]: 8.47 µM (≈ 14.1 µg/mL)
- MIC [18]: 4.23 µM (≈ 7.07 µg/mL)
- MIC [19]: 4.23 µM (≈ 7.07 µg/mL)
- MIC [20]: 4.23 µM (≈ 7.07 µg/mL)
- MIC (Vibrio splendidus SATMAR): 14.1 µM (≈ 23.6 µg/mL)
- MIC [21]: 8.47 µM (≈ 14.1 µg/mL)
- MIC [22]: 14.1 µM (≈ 23.6 µg/mL)
- MIC [23]: ≥ 33.9 µM
- MIC [24]: 16.9 µM (≈ 28.3 µg/mL)
- MIC [25]: ≥ 33.9 µM
- MIC [26]: 4.23 µM (≈ 7.07 µg/mL)
SMILES: CC(C)C[C@H](NC(=O)CNC(=O)[C@H](Cc1ccccc1)NC(=O)[C@H](Cc1ccccc1)NC(=O)[C@H](CC(C)C)NC(=O)CNC(=O)[C@H](Cc1ccccc1)NC(=O)[C@H](CC(C)C)NC(=O)[C@@H]1CCCN1C(=O)[C@H](CCCCN)NC(=O)[C@H](CCCCN)NC(=O)[C@H](CCCCN)NC(=O)[C@@H](N)CCCCN)C(=O)N[C@@H](Cc1ccccc1)C(=O)O [KKKKPLFGLFFGLF]

- MIC [27]: 2.43 µM (≈ 6.25 µg/mL)
- MIC [28]: 2.43 µM (≈ 6.25 µg/mL)
- MIC [29]: 2.43 µM (≈ 6.25 µg/mL)
- MIC [31]: 9.73 µM (≈ 25 µg/mL)
- MIC [32]: 19.5 µM (≈ 50 µg/mL)
- MIC (Salmonella typhimurium): 19.5 µM (≈ 50 µg/mL)
- MIC [33]: 4.87 µM (≈ 12.5 µg/mL)
- MIC [34]: 19.5 µM (≈ 50 µg/mL)
SMILES: CC[C@H](C)[C@H](NC(=O)[C@H](C)NC(=O)CNC(=O)[C@@H](NC(=O)[C@@H](NC(=O)[C@H](CCC(N)=O)NC(=O)[C@@H]1CCCN1C(=O)[C@@H](NC(=O)[C@H](C)NC(=O)CNC(=O)[C@@H](NC(=O)[C@@H](NC(=O)[C@H](Cc1cnc[nH]1)NC(=O)[C@@H]1CCCN1C(=O)[C@H](CC(C)C)NC(=O)[C@H](CC(C)C)NC(=O)[C@@H]1CCCN1C(=O)[C@@H](NC(=O)[C@H](CC(C)C)NC(=O)[C@H](Cc1ccccc1)NC(=O)CNC(=O)[C@H](Cc1ccccc1)NC(=O)[C@@H](N)CC(C)C)[C@@H](C)CC)[C@@H](C)CC)[C@@H](C)CC)[C@@H](C)CC)C(C)C)[C@@H](C)CC)C(=O)N[C@@H](CCCN=C(N)N)C(=O)O [LFGFLIPLLPHIIGAIPQVIGAIR]
- MIC [30]: 9.73 µM (≈ 25 µg/mL)

- MIC [8]: ≥ 92.2 µM
- MIC [9]: ≥ 92.2 µM
SMILES: NC(N)=NCCC[C@H](NC(=O)CNC(=O)[C@H](CCCN=C(N)N)NC(=O)CNC(=O)[C@H](CCCN=C(N)N)NC(=O)CNC(=O)[C@H](CCCN=C(N)N)NC(=O)CNC(=O)[C@@H](N)CCCN=C(N)N)C(=O)NCC(=O)O [RGRGRGRGRG]
